{"source": "patent US7781580B2", "about": "“Stilbene derivatives as new cancer therapeutic agents” (Virginia Commonwealth University, priority 2007, dated 2010)", "key": {"[1]": {"system": "HL60 leukemic cells (xenograft)", "test": "HL60 xenograft model in SCID mice", "assay_type": "in vivo", "procedure": "FIG. 20. Effect of stilbene 4a in vivo. (a) Induction of cell death in vivo by stilbene 4a. Tumor was harvested at 24 hours after treatment for TUNEL assay. (b) Histological sections of tumor. Tumor harvested at 24 hours after injection of stilbene 4a was analyzed by H & E staining. The area with lighter color is the necrotic region. (c) Tumor growth suppression. SCID mice were injected subcutaneously with 5×10^6 HL60 cells at each flank. Once the diameter of tumor reached 5 mm in diameter in majority of mice, mice were treated with 5 daily injection of stilbene 4a. Tumor volume was calculated by the long and short axis of tumor and plotted against days. Each group contains 5 mice.\nHL60 leukemic cells were injected subcutaneously into ICR-scid mice (Taconic Inc.) on flank. After tumor becomes visible after 12 days, Mice will be treated with stilbene 4a by intravenous injection after dissolved in 10% DMSO in normal saline. For acute effect study, mice were sacrificed 24 hours after injection and tumor and bone marrow were harvested for histological staining and flow cytometry analysis. For long term effect study, stilbenes were injected intravenously from tail veins at 2 or 10 mg/kg for 5 consecutive days. Negative control mice were treated with 10% DMSO in normal saline and positive control mice were treated with Ara-C at 5 mg/kg. Tumor volume was measured twice a week for 4 weeks by the long and short axes of tumor. Volume was calculated by the formula ab^2/2, in which “a” represents the long axis and “b” the short axis of tumor. Mice were euthanized if the calculated tumor reached 10% of the body weight."}, "[2]": {"system": "UCI101 ovarian cancer cells", "test": "Alamar Blue cell growth inhibition, UCI101", "assay_type": "cell-based", "settings": "UCI101, 48 hours", "summary_of_the_method": "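UCI101 cells at 50% confluence treated 48 h in triplicate with compound (0–10 μM series) or 0.1% DMSO vehicle as 100% control. Alamar Blue added at 1/10 volume for 2 h; absorbance read at 570 and 600 nm, percent growth inhibition from the manufacturer's formula.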"}, "[3]": {"system": "c-kit-positive progenitor cells (engraftment)", "test": "bone marrow transplantation of stilbene-treated progenitor cells", "assay_type": "in vivo, mice", "settings": "cells incubated at 0.1 or 0.5 μM for 16 hours", "procedure": "FIG. 16. (a) Effect of stilbenes in normal bone marrow progenitor cells. c-kit-positive bone marrow mononuclear cells were isolated for incubation with stilbenes 4a or 4c at 0.1 or 0.5 […] for 16 hours. Cells were harvested for fixation and PI staining. Cell cycle analysis and quantification of the subG0/1 population were analyzed by FACScan flow cytometry. The percentages of the apoptotic population were indicated. Shown are the representatives of two independent experiments. (b) Effect of stilbenes in HL60 cells as positive control. HL60 cells were treated with stilbenes 4a or 4c in the same medium as the positive control. (c) Colony forming assay of the stilbene-treated c-kit-positive cells. […] Cells were incubated for 14 days and the grossly visible colonies were counted. […] Mice were monitored for survival and lineage-specific donor engraftment by flow cytometry analysis of peripheral blood. […]\nC57BL/6J (H2b, CD45.2) mice served as bone marrow donors and were between 6-10 weeks of age. […] Peripheral blood engraftment in recipient mice was assessed by flow cytometry analysis for CD3+ (145-2C11; BD Biosciences, San Jose, Calif.) T-cells, B220+ (RA3-6B2) B-cells, Mac1+ (M1/70.15) monocytes, and Gr1+ (8C5) granulocytes and distinguished between donor versus recipient with anti-CD45.1 (A20) and anti-CD45.2 (104) monoclonal antibodies."}}, "data": [{"smiles": "COc1cc(/C=C\\c2ccc(OC)c(N)c2)cc(OC)c1", "note": "[4a, (Z)-5-[2-(3,5-Dimethoxy-phenyl)-vinyl]-2-methoxy-phenylamine]", "values": [{"measurement": "tumor growth suppression", "setting": "[1]; 10 mg/kg intravenously daily for 5 days, 12 days after the first injection", "result": 50, "unit": "%"}, {"measurement": "percentage of apoptosis in tumor (TUNEL)", "setting": "[1]; 10 mg/kg intravenously, 24 hours", "result": 22, "unit": "%"}, {"measurement": "percentage of apoptosis in tumor (TUNEL)", "setting": "[1]; 50 mg/kg intravenously, 24 hours", "result": 62, "unit": "%"}, {"measurement": "percentage of apoptosis in tumor (TUNEL)", "setting": "[1]; 100 mg/kg intravenously, 24 hours", "result": 58, "unit": "%"}, {"measurement": "bone marrow TUNEL (acute marrow toxicity)", "setting": "[1]; 50 and 100 mg/kg, 24 hours", "result": "No increase in TUNEL positive cells was observed"}, {"measurement": "relative potency / activity", "setting": "[2]", "result": "about equal in their potency"}, {"measurement": "radioprotection of lethally irradiated mice by treated progenitor cells", "setting": "[3]", "result": "all mice were rescued from lethal irradiation"}]}]}
